From patent US5698567A, “Heterocyclic spiro compounds” (Adir Et Compagnie, priority 1995, dated 1997)
Where a name gives a salt, the structure may show the parent alone.

Assays:
[1] = test system: synthesis of PGE2 by the peritoneal PMN of rats; experiment: Inhibition of the synthesis of PGE2 by the peritoneal PMN of rats in vitro; assay type: cell-based, rat; settings: A23187; for inhibition at 100 µM: 10^-4 M; for inhibition at 100 µM / inhibition at 10 µM: rat peritoneal PMN; for inhibition at 10 µM: 10^-5 M; for IC50: rat peritoneal PMN in vitro
Protocol: (§1) 5-Lipoxygenase-inhibiting activity was determined on peritoneal leukocytes of rats. Leukocytosis is induced in male OFA rats (IFFA CREDO) weighing 200-250 g by the intraperitoneal injection of 12% sodium caseinate. 18 hours later, the cells are collected by washing the abdominal cavity. The number of cells is adjusted to 2×10^6 /ml.
(§2) The cell suspension is incubated for 10 minutes at 37° C. in the presence of Ca^2+ 5×10^-4 M and Mg^2+ 2×10^-3 M and of various concentrations of the test products. The cells are then stimulated with the calcium ionophore A23187 at a concentration of 10^-6 M for 5 minutes at 37° C. Controls are carded out by incubating the cells with the solvent for the products: 2% DMSO.
(§3) Metabolism of arachidonic acid by the peritoneal PMN of rats stimulated
(§4) for 5 minutes in vitro by the calcium ionophore (A23187): 10^-6 M.
(§5) Incubation of the products with the cells for 10 minutes prior to
(§6) stimulation with the ionophore.

5-lipoxygenase [2] = experiment: Inhibition of the synthesis of LTB4 by the peritoneal PMN of rats in vitro (5-lipoxygenase-inhibiting activity); assay type: cell-based, rat; settings: rat peritoneal PMN, A23187 10^-6 M
Source text: 1.1 Determination of 5-1ipoxygenase-inhibiting activity in vitro (see Goldyne M. E., Burrish G. F., Poubelle P. and Borgeat P., Arachidonic Acid Metabolism among human mononuclear leukocytes. The Journal of Biological Chemistry. Vol. 259, N° 4, p. 8815-8819, 1984, and New Chang C. and Gin Wensu. Stimulation of 5-Lipoxygenase Activity in Polymorphonuclear Leukocytes of Rats by Caseinate Treatment. Biochemical Pharmacology. Vol. 36, N° 8, p. 3033-3036, 1987).
as §1, §2
After stopping the reaction at +4° C. and centrifugation, the quantity of LTB4 in ng/2×10^6 cells in the supernatants is determined by the E.I.A. method (Statlergenes France). The percentage inhibition is calculated as follows: [formula]
as §3, §4, §5, §6

5-lipoxygenase [3] = experiment: Inhibition of the synthesis of LTB4 in total blood of rats ex vivo (5-lipoxygenase-inhibiting activity); parameters: species or system rat; settings: 60 μmol/kg p.o., 1 h; A23187 5 × 10^-5 M, n = 8
Protocol: 1.2 Determination of 5-lipoxygenase-inhibiting activity ex vivo (see Brideau C., Chan C., Charleson S., Denis D. et al. Pharmacology of MK-0591 (3-[1-(4-chlorobenzyl)-3-(t-butyl-thio)-5(quinolin-2-yl-methoxy)-indol-2-yl]-2,2-dimethyl propanoic acid), a Potent, Orally Active Leukotriene Biosynthesis Inhibitor. Can. J. Physiol. Pharmacol. Vol. 70, p. 799-807, 1992).
Inhibition of the biosynthesis of leukotrienes ex vivo following oral administration of the compounds was determined by studying the production of leukotrienes on total blood of rats stimulated in vitro by the calcium ionophore at time 1 hour after oral administration of the compounds.
The various products are administered in suspension in hydroxyethylcellulose: 0.5% H.E.C. at a dose of 60 μmol/kg. Each product is studied on a group of 8 different animals. A control group receives 0.5% H.E.C. only. After intracardial removal of the blood from each rat (male Sprague Dawley rats weighing 150-200 g IFFA CREDO), 1 ml of heparinised blood is incubated with the calcium ionophore A23 187 at a concentration of 5×10^-5 M for 10 minutes at 37° C. The blood is then centrifuged immediately and 100 μl of plasma are extracted in 400 μl of methanol. After centrifugation, the supernatant is evaporated to dryness under N2, the dry residue is taken up in buffer solution, and the LTB4 is assayed by the E.I.A. method (Stallergenes France).
The percentage inhibition is expressed as follows: [formula] 2/Results
Average relative to all controls n = 31
Products administered p.o. 1 hour before removal of blood n = 8
Total blood of rats stimulated for 10 minutes in vitro by the calcium

Row | Compound | IC50 [1] [µM] | inhibition at 100 µM [1] [%] | inhibition at 10 µM [1] [%] | LTB4 % Inhibition (5-lipoxygenase [2]; 4.10^-8 M) [%] | LTB4 % Inhibition (5-lipoxygenase [2]; 10^-6 M) [%] | LTB4 % Inhibition (5-lipoxygenase [2]; 10^-7 M) [%] | LTB4 % Inhibition (5-lipoxygenase [2]; 10^-8 M) [%] | % Inhibition of the synthesis of LTB4 in total blood of rats ex vivo (5-lipoxygenase [3]) [%]
1 | O=C1NCC2(CCN(CC(c3ccc(Cl)cc3)c3ccc(OCc4ccc5ccccc5n4)cc3)CC2)O1 (racemic) [Example 8, (R,S)-8-{2-(4-chlorophenyl)-2-[4-(quinol-2-ylmethoxy)phenyl]ethyl}-3,8-diaza-1-oxa-2-oxospiro[4,5]decane dihydrochloride] | – | 72 | 32 | 85 | 100 | 100 | 22 | 46
2 | O=C1NCC2(CCN(CC(Cc3ccccc3)c3ccc(OCc4ccc5ccccc5n4)cc3)CC2)O1 (racemic) [Example 32, (R,S)-8-{3-phenyl-2-[4-(quinol-2-ylmethoxy)phenyl]propyl}-3,8-diaza-1-oxa-2-oxospiro[4,5]decane] | – | 92 | – | 24 | 100 | 78 | – | 55
3 | O=C1NCC2(CCN(CC(CCc3ccccc3)c3ccc(OCc4ccc5ccccc5n4)cc3)CC2)O1 (racemic) [Example 33, (R,S)-8-{4-phenyl-2-[4-(quinol-2-ylmethoxy)phenyl]butyl}-3,8-diaza-1-oxa-2-oxospiro[4,5]decane] | – | 94 | 7 | 54 | – | 86 | 6 | 48

Now from value to compound, other results behind:

Row | IC50 [1] [µM] | Compound | inhibition at 100 µM [1] [%] | inhibition at 10 µM [1] [%] | LTB4 % Inhibition (5-lipoxygenase [2]; 4.10^-8 M) [%] | LTB4 % Inhibition (5-lipoxygenase [2]; 10^-6 M) [%] | LTB4 % Inhibition (5-lipoxygenase [2]; 10^-7 M) [%] | LTB4 % Inhibition (5-lipoxygenase [2]; 10^-8 M) [%] | % Inhibition of the synthesis of LTB4 in total blood of rats ex vivo (5-lipoxygenase [3]) [%]
4 | > 100 | O=C1NCC2(CCN(C(c3ccc(Cl)cc3)c3ccc(OCc4ccc5ccccc5n4)cc3)CC2)O1 (racemic) [Example 22, (R,S)-8-{(4-chlorophenyl)-[4-(quinol-2-ylmethoxy)phenyl]methyl}-3,8-diaza-1-oxa-2-oxospiro[4,5]decane dihydrochloride] | 4 | 6 | 76 | 100 | 97 | 18 | 17
5 | > 100 | O=C1NCC2(CCN(C(c3ccccc3)c3ccc(OCc4ccc5ccccc5n4)cc3)CC2)O1 (racemic) [Example 24, (R,S)-8-{phenyl-[4-(quinol-2-ylmethoxy)phenyl]methyl}-3,8-diaza-1-oxa-2-oxospiro[4,5]decane] | 44 | 19 | 56 | – | 100 | – | 41
6 | > 100 | O=C1NCC2(CCN(CC(Cc3ccc(Cl)cc3)c3ccc(OCc4ccc5ccccc5n4)cc3)CC2)O1 (racemic) [Example 34, (R,S)-8-{3-(4-chlorophenyl)-2-[4-(quinol-2-ylmethoxy)phenyl]propyl}-3,8-diaza-1-oxa-2-oxospiro[4,5]decane hydrochloride] | 6 | 2 | 56 | 100 | 72 | 12 | 58
